According to patent US11795510B2, “Identification of epigenomic reprogramming in cancer and uses thereof” (The Johns Hopkins University, priority 2016, dated 2023):
“Also recorded” adds a separate entry of the source.

Tests used:
[1] = system: distant metastatic and precursor subclones; experiment: YSI metabolite analysis (glucose/glutamine consumption, lactate/glutamate secretion); assay type: cell-based, human
Description: (§1) Tissue samples and cell lines were previously collected from PDAC patients by rapid autopsy, sequenced-validated, and monitored for mycoplasma as previously described. Low passage (2-17) rapid autopsy cell lines were cultured at 37° C. in DMEM with 10% fetal bovine serum (FBS, Gibco). For MTT assays, 15,000 cells/well were plated into 96 well plates in triplicate, treated 12 hours later, and assayed after 24 hr (glucose responses) or 6 days (chemotherapy) with CellTiter96 (Promega). For glucose response assays, nutrient-deplete DMEM (no glucose, glutamine, pyruvate, or serum) was used with addition of glucose as indicated. […] Cells were then washed with PBS, trypsinized, and viable cells counted with a hemocytometer. Glucose uptake and lactate secretion were measured with a YSI 7100 Bioanalyzer as described in the supplementary methods. […]
YSI metabolite analysis. Metabolite consumption (glucose and glutamine) and production (lactate and glutamate) were measured using a YSI 7100 Bioanalyzer. […] At day 0 cells were counted (3 wells) or cultured in either regular medium or medium supplemented with the indicated compound. […] The area under the curve (AUC) was calculated as N(T)d/ln2([…]), where N(T) is the final cell count, d is doubling time, and T is time of experiment. […]

[2] = biological target: T1, 6-phosphogluconate dehydrogenase (PGD) (Homo sapiens, UniProt P52209); experiment: Steady state LC-HRMS metabolite profiling (glycolytic/PPP metabolites); assay type: cell-based
T1 construct: endogenous in cells; host or cells: low-passage rapid-autopsy PDAC cell lines (e.g. A38Lg, A38Per, A13 subclones)
T1 sequence (P52209 1-483): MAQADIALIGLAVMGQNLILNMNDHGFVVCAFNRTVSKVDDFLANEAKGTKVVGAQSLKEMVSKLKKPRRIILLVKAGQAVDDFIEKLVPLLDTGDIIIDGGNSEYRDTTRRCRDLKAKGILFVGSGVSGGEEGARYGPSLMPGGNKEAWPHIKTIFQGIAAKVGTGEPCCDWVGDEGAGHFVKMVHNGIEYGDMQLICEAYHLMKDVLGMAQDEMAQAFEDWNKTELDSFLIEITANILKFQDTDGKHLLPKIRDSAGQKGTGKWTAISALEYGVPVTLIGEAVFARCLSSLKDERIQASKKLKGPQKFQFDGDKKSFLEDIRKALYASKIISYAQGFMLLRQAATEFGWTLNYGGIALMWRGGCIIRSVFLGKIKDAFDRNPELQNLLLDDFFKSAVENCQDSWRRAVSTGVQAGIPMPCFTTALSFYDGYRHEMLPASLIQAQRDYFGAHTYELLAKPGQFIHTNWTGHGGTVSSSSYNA
Description: as §1
LC-HRMS Metabolite Profiling. LC-HRMS samples were prepared and analyzed as described in Liu et al. (Development and quantitative evaluation of a high-resolution metabolomics technology. Anal Chem 86, 2175-84 (2014)). […] Additional replicates were also included and counted at the end of the experiment for normalization. […] Pellets were reconstituted into a volume normalized to protein content (15 uL of 1:1 acetonitrile:methanol and 15 uL of water was used per 1 mg protein) and analyzed by LC-QE-MS. […]

[3] = system: distant metastatic subclones; experiment: 3-D suspension tumorsphere assay, distant metastatic subclones; assay type: cell-based, human
Description: 3-D matrigel assays were adapted from Cheung et al. (Control of alveolar differentiation by the lineage transcription factors GATA6 and HOPX inhibits lung adenocarcinoma metastasis. Cancer Cell 23, 725-38 (2013)). Briefly, 2-D cultures were trypsinized into single cells, 4,000cells/mL were suspended and thoroughly mixed in ice-cold DMEM containing 5% matrigel (BD systems) and 2% FBS (+/−DMSO/6AN as needed), 500 ul plated in quadruplicate into 24 well ultra-low attachment plates, and incubated for at least 7 days to allow tumor growth. Well-formed tumors were then counted and representative photographs taken with an EVOS instrument. 3-D suspension tumorsphere assays were performed with 20,000 starting cells/well in ultra-low attachment 6 well plates as described, and tumors counted/photographed after at least 7 days of tumor growth.

[4] = system: CDH2 and TOP2B expression; experiment: Real-time RT-PCR of CDH2 and TOP2B; assay type: cell-based, human
Description: Histones were acid extracted as described and western blots performed on 3.5 ug histones, which were checked by Ponceau stains prior to western blot to ensure equal loading. Densitometry was performed with ImageJ software. RNA was extracted with Trizol reagent (Life Technologies) and isopropanol precipitated. Genomic DNA was purified with MasterPure DNA extraction reagents (Epicenter). Immunohistochemistry, H&E staining, and immunofluorescence on formalin-fixed, paraffin-embedded (FFPE) tissue microarray sections (TMAs) were performed according to standard procedures.

NC(=O)c1ccc(N)nc1 [6AN, 6-aminonicotinamide]
glutamine consumption or glutamate secretion [1]: no effect
rates of glucose consumption and lactate secretion [1]: selectively slowed
steady state levels of glucose and metabolites directly upstream of the PGD reaction (6PG, G1,5L) [2]: dramatically elevated; also recorded: greatly increased
steady state levels of metabolites downstream of the PGD reaction [2]: corresponding reductions
tumor formation in 3-D suspension tumorsphere assays [3]: selectively and strongly blocked tumor formation; also recorded: ablated tumor formation
CDH2 expression (RT-PCR) ([4]; distant metastatic subclone A38Lg): selectively repressed
TOP2B expression (RT-PCR) ([4]; lung metastatic subclone): selectively repressed
